Experimental data: patent publication US9850203B2, “Autotaxin inhibitor compounds” (PharmAkea, Inc., priority 2013, dated 2017)

biological target: human autotaxin (ATX) (Homo sapiens (Human), UniProt Q13822); assay: Human Autotaxin Assay; type: biochemical; conditions: concentrated conditioned media from Hep3B cells; LPC substrate, choline release
How it was run: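 Autotaxin source: Hep3B conditioned medium concentrated 20-fold, preincubated with compound 15 min at 37° C in lyso-PLD buffer (100 mM Tris pH 9, 500 mM NaCl, 5 mM MgCl2, 5 mM CaCl2, 0.05% Triton X-100, ±0.2% fatty-acid-free HSA). 100 uM LPC (14:0) then added, 1.5-3 hours at 37° C; choline release measured.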

IC50, ≤ 500 nM:
Cc1c(Sc2cccc(C(=O)O)c2)c2ccc(Cl)c(F)c2n1CC(=O)N1CCC2(CC2)C1 [Compound 1-95, 3-((6-Chloro-7-fluoro-2-methyl-1-(2-oxo-2-(5-azaspiro[2.4]heptan-5-yl)ethyl)-1H-indol-3-yl)thio)benzoic acid]
Cc1c(Sc2cccc(C(=O)O)c2)c2ccc(Cl)c(F)c2n1CC(=O)N1CCC(c2cnn(C)c2)C1 (stereo not drawn) [Compound 1-96, 3-((6-Chloro-7-fluoro-2-methyl-1-(2-(3-(1-methyl-1H-pyrazol-4-yl)pyrrolidin-1-yl)-2-oxoethyl)-1H-indol-3-yl)thio)benzoic acid]
Cc1c(Sc2cccc(C(=O)O)c2)c2ccc(Cl)c(F)c2n1CC(=O)N1CCc2ccncc21 [Compound 1-97, 3-((6-Chloro-1-(2-(2,3-dihydro-1H-pyrrolo[2,3-c]pyridin-1-yl)-2-oxoethyl)-7-fluoro-2-methyl-1H-indol-3-yl)thio)benzoic acid]
Cc1c(Sc2cccc(C(=O)O)c2)c2ccc(Cl)c(F)c2n1CC(=O)N1CC2CCCCC2C1 (stereo not drawn) [Compound 1-98, 3-((6-Chloro-7-fluoro-1-(2-(hexahydro-1H-isoindol-2(3H)-yl)-2-oxoethyl)-2-methyl-1H-indol-3-yl)thio)benzoic acid]
Cc1c(Sc2cccc(C(=O)O)n2)c2ccc(Cl)c(F)c2n1CC(=O)N1CCc2ccccc21 [Compound 2-3]
Cc1c(Sc2cccc(C(=O)O)n2)c2ccc(Cl)c(F)c2n1CC(=O)N1CC2(CC2)c2ccccc21 [Compound 2-54, 6-((6-Chloro-7-fluoro-2-methyl-1-(2-oxo-2-(spiro[cyclopropane-1,3′-indolin]-1′-yl)ethyl)-1H-indol-3-yl)thio)picolinic acid]
Cc1c(Sc2cccc(C(=O)O)c2F)c2ccc(Cl)c(F)c2n1CC(=O)N1CC2(CC2)c2ccccc21 [Compound 2-55, 3-((6-Chloro-7-fluoro-2-methyl-1-(2-oxo-2-(spiro[cyclopropane-1,3′-indolin]-1′-yl)ethyl)-1H-indol-3-yl)thio)-2-fluorobenzoic acid]
Cc1c(Sc2cccc(C(=O)O)c2F)c2ccc(Cl)c(F)c2n1CC(=O)N1CCc2ccncc21 [Compound 2-60, 3-((6-Chloro-1-(2-(2,3-dihydro-1H-pyrrolo[2,3-c]pyridin-1-yl)-2-oxoethyl)-7-fluoro-2-methyl-1H-indol-3-yl)thio)-2-fluorobenzoic acid]
Cc1c(Sc2cccc(C(=O)O)c2F)c2ccc(Cl)c(F)c2n1CC(=O)N1CCC(C)(O)C1 (stereo not drawn) [Compound 2-61, 3-((6-Chloro-7-fluoro-1-(2-(3-hydroxy-3-methylpyrrolidin-1-yl)-2-oxoethyl)-2-methyl-1H-indol-3-yl)thio)-2-fluorobenzoic acid]
Cc1c(Sc2cccc(C(=O)O)c2F)c2ccc(Cl)c(F)c2n1CC(=O)N1CC(O)(C2CC2)C1 [Compound 2-63, 3-((6-Chloro-1-(2-(3-cyclopropyl-3-hydroxyazetidin-1-yl)-2-oxoethyl)-7-fluoro-2-methyl-1H-indol-3-yl)thio)-2-fluorobenzoic acid]
Cc1c(Sc2cccc(C(=O)O)c2F)c2ccc(Cl)c(F)c2n1CC(=O)N1CC[C@@H](CO)C1 [Compound 2-64, (R)-3-((6-Chloro-7-fluoro-1-(2-(3-(hydroxymethyl)pyrrolidin-1-yl)-2-oxoethyl)-2-methyl-1H-indol-3-yl)thio)-2-fluorobenzoic acid]
Cc1c(Sc2cccc(C(=O)O)c2F)c2ccc(Cl)c(F)c2n1CC(=O)N1C[C@H](O)[C@@H](N2CCOCC2)C1 [Compound 2-65, 3-((6-Chloro-7-fluoro-1-(2-((3S,4S)-3-hydroxy-4-morpholinopyrrolidin-1-yl)-2-oxoethyl)-2-methyl-1H-indol-3-yl)thio)-2-fluorobenzoic acid]
